Like-named read-outs stand apart in the source and are kept apart here.
Experiments:
Assay type in all cases: biochemical
[1] = target: T1, PI3K α (p110α/p85α) (Homo sapiens, UniProt P42336); assay: PI 3-Kinase (human) HTRF assay, PI3K α; details: read-out: PI3K α IC50
T1 construct: purchased Upstate / Millipore Corporation

[2] = target: T2, PI3K β (p110β/p85α) (Homo sapiens, UniProt P42338); assay: PI 3-Kinase (human) HTRF assay, PI3K β; details: read-out: PI3K β IC50
T2 construct: purchased Upstate / Millipore Corporation
Experimental: (§1) Briefly, the assay is a time resolved FRET assay that indirectly measures PIP3 product formed by the activity of a PI3-K. The kinase reaction is performed in a microtiter plate (e.g., a 384 well microtiter plate). The total reaction volume is approximately 20 ul per well. In the first step, each well receives 2 ul of test compound in 20% dimethylsulphoxide resulting in a 2% DMSO final concentration. […] The plate is sealed and incubated for 15 minutes at room temperature. […] The plate is sealed and incubated for 1 hour at room temperature. The reaction is stopped by adding 5 ul of Stop Solution per well and then 5 ul of Detection Mix is added per well. The plate is sealed, incubated for 1 hour at room temperature, and then read on an appropriate plate reader. Data is analyzed and IC50s are generated using GraphPad Prism 5.

[3] = target: T3, PI3K δ (Homo sapiens, UniProt O00329); assay: PI 3-Kinase (human) HTRF assay, PI3K δ; details: read-out: PI3K δ IC50
T3 construct: purchased Upstate / Millipore Corporation
T3 sequence (O00329 whole entry): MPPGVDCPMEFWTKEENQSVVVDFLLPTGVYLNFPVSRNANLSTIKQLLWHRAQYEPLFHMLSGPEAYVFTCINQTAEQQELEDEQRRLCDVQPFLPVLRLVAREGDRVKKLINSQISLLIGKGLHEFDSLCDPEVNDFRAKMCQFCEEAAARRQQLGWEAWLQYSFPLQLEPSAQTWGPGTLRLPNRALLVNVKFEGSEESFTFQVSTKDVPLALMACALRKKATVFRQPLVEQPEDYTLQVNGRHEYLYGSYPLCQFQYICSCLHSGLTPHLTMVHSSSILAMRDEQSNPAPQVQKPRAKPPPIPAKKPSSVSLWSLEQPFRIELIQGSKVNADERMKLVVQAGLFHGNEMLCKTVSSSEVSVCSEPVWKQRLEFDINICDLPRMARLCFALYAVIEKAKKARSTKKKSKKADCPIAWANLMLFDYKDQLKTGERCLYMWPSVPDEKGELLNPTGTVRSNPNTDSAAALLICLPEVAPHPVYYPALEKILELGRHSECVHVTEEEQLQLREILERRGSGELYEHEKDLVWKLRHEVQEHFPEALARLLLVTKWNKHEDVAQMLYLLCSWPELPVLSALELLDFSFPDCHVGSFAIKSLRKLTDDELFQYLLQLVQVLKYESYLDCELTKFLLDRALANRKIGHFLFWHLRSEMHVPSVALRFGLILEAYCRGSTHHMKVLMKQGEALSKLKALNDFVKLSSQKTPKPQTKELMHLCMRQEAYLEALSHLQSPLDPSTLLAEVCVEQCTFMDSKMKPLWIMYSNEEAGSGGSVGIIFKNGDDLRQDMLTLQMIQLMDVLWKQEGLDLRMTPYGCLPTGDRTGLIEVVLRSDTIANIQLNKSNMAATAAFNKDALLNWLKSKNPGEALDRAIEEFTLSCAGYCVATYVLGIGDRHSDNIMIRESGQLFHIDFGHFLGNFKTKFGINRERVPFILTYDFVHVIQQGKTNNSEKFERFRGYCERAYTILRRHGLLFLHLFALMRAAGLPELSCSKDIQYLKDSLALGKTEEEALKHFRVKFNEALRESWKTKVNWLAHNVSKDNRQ
T3 sequence (P27986 whole entry partner): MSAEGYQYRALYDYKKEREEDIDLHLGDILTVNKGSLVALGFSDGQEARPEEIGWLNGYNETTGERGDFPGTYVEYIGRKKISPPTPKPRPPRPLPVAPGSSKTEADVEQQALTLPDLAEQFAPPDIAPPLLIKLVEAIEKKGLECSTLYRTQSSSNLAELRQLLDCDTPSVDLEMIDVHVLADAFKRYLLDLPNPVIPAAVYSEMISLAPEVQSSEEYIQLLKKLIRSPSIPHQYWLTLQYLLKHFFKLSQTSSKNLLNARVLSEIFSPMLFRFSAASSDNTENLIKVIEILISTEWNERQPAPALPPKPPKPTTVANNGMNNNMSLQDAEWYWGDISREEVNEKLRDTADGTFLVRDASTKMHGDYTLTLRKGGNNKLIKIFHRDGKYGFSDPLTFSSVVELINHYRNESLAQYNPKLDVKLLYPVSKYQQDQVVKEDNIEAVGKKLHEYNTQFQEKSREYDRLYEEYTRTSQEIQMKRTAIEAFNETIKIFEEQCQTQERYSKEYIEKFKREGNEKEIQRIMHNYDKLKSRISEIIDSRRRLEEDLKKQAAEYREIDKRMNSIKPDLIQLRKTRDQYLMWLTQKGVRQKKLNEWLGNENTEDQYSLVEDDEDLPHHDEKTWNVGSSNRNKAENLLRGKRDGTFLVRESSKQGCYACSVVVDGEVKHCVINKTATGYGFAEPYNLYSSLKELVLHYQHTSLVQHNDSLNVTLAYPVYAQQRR
Experimental: as §1

T2 sequence (P42338 whole entry): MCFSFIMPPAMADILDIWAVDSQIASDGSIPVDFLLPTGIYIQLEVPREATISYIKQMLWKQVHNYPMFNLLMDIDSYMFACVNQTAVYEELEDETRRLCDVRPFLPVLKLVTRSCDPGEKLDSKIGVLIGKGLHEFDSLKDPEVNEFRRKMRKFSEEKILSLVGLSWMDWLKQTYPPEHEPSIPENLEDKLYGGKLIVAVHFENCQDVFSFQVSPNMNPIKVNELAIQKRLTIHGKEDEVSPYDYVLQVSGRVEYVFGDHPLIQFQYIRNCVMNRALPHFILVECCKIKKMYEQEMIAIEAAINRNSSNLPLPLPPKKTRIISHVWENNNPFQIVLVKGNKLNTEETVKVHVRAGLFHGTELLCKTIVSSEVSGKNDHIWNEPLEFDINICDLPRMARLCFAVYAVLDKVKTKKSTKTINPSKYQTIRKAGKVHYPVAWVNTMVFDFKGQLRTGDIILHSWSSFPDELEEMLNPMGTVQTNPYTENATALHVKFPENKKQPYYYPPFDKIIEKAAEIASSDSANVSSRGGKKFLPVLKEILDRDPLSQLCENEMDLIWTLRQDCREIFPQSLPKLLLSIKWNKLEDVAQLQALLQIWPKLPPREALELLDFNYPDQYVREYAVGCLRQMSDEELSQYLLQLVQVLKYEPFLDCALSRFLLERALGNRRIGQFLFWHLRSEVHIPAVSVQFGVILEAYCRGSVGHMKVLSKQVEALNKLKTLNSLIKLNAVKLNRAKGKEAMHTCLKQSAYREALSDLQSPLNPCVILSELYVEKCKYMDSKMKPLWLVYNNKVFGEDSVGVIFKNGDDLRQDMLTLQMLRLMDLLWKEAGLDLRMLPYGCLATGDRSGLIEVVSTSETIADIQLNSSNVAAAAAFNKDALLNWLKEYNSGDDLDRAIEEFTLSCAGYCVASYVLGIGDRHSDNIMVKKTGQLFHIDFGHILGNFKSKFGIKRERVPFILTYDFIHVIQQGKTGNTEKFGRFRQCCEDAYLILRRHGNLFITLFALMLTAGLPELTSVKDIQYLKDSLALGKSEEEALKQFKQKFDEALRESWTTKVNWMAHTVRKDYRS
T2 sequence (P27986 whole entry partner): as the sequence (P27986 whole entry partner) above
T1 sequence (P42336 whole entry): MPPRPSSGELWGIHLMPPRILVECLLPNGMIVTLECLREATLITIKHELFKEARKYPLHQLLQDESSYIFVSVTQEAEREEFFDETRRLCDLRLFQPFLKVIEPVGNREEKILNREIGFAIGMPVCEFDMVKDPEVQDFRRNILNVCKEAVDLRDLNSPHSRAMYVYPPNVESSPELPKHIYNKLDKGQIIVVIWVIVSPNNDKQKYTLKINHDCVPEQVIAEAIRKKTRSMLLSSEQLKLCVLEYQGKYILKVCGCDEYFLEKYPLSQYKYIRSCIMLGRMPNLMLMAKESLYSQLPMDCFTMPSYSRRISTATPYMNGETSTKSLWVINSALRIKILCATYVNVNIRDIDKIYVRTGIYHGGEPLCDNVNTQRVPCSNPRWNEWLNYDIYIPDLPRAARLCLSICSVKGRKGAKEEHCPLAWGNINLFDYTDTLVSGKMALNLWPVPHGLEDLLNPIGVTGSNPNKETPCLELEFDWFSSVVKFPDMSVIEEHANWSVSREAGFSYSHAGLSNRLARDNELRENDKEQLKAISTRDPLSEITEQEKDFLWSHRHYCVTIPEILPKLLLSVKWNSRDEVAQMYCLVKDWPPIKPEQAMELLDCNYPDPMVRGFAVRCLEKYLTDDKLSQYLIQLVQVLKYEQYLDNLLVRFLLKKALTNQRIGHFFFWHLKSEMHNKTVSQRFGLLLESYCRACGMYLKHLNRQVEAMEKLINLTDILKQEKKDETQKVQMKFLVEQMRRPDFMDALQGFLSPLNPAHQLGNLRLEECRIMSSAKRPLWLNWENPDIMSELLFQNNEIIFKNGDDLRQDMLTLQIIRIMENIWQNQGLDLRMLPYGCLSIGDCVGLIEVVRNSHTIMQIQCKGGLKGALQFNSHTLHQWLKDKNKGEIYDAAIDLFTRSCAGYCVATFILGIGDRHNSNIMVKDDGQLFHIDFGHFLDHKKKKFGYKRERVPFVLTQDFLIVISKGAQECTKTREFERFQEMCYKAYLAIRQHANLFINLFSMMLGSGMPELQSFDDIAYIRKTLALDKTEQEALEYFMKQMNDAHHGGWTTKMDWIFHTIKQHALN
T1 sequence (P27986 whole entry partner): as the sequence (P27986 whole entry partner) above

SMILES | IC50 [1] | IC50 [2] | IC50 [3] | IC50 ([1]; Table 4 (PI3K α inhibitors)) | IC50 ([2]; Table 4 (PI3K α inhibitors)) | IC50 ([3]; Table 4 (PI3K α inhibitors))
Nc1nc2cc(-c3ccc4nccc(-c5cn[nH]c5)c4c3)ccc2o1 [Compound 20] | < 0.1 µM | < 0.1 µM | < 0.1 µM | – | – | –
Nc1nc2cc(-c3ccc4ncc(-c5cccnc5)n4c3)ccc2o1 [Compound 37] | < 0.1 µM | – | < 0.1 µM | – | – | –
Nc1nc2cc(-c3ccc4ncc(C#CC5CC5)n4c3)ccc2o1 [Compound 39] | < 0.1 µM | – | < 0.1 µM | – | – | –
Nc1nc2cc(-c3ccc4ncn(C5CCNCC5)c(=O)c4c3)ccc2o1 [Compound 75] | < 0.1 µM | < 10 µM | > 10 µM | – | – | –
Nc1nc2cc(-c3ccc4ncc(-c5cn[nH]c5)nc4c3)ccc2o1 [Compound 78] | < 0.1 µM | < 1 µM | < 1 µM | – | – | –
Cn1cc(-c2cnc3ccc(-c4ccc5oc(N)nc5c4)cc3n2)cn1 [Compound 94] | < 0.1 µM | < 1 µM | < 10 µM | – | – | –
CN(C)CC(=O)N1CCC(Nc2ncnc3ccc(-c4ccc5oc(N)nc5c4)cc23)CC1 [Compound 103] | < 0.1 µM | < 1 µM | < 1 µM | – | – | –
Nc1nc2cc(-c3ccc4ncc(C(=O)N5CCS(=O)(=O)CC5)n4c3)ccc2o1 [Compound 107] | < 1 µM | > 10 µM | > 10 µM | – | – | –
CN1CCN(c2cnc3ccc(-c4ccc5nc(N)oc5c4)cc3n2)CC1 [Compound 118] | < 1 µM | < 0.1 µM | > 10 µM | – | – | –
CC1CN(c2cnc3ccc(-c4ccc5oc(N)nc5c4)cc3n2)CC(C)N1 (stereo not shown) [Compound 131] | < 1 µM | < 1 µM | < 1 µM | – | – | –
CC(N)C(=O)N1CCN(c2cnc3ccc(-c4ccc5oc(N)nc5c4)cc3n2)CC1 (stereo not shown) [Compound 134] | < 0.1 µM | < 1 µM | < 1 µM | – | – | –
CN1CCN(C(=O)c2cnc3ccc(-c4ccc5sc(N)nc5c4)cn23)CC1 [Compound 144] | < 1 µM | < 10 µM | > 10 µM | – | – | –
CN1CCN(C(=O)c2cnc3ccc(-c4ccc5nc(N)oc5c4)cn23)CC1 [Compound 145] | < 1 µM | < 10 µM | > 10 µM | – | – | –
CC1CN(c2cnc3ccc(-c4ccc5oc(N)nc5c4)cc3n2)CCO1 (stereo not shown) [Compound 173] | < 0.1 µM | < 1 µM | < 10 µM | – | – | –
C[C@H]1CN(c2cnc3ccc(-c4ccc5oc(N)nc5c4)cc3n2)CCN1 [Compound 178] | < 0.1 µM | < 0.1 µM | < 1 µM | – | – | –
C[C@@H]1CN(c2cnc3ccc(-c4ccc5oc(N)nc5c4)cc3n2)CCN1 [Compound 179] | < 0.1 µM | < 1 µM | – | – | – | –
CCNC(=O)c1cnc2ccc(-c3ccc4oc(N)nc4c3)cn12 [Compound 188] | < 0.1 µM | < 1 µM | < 1 µM | – | – | –
CS(=O)(=O)CCN1CCN(C(=O)c2cnc3ccc(-c4ccc5oc(N)nc5c4)cn23)CC1 [Compound 198] | < 0.1 µM | < 10 µM | < 10 µM | – | – | –
Nc1nc2cc(-c3ccc4ncc(C(=O)N5CCC(O)C5)n4c3)ccc2o1 (stereo not shown) [Compound 202] | < 0.1 µM | < 10 µM | < 10 µM | – | – | –
Nc1nc2cc(-c3ccc4ncc(C(=O)N5CCC(N)CC5)n4c3)ccc2o1 [Compound 204] | < 0.1 µM | < 1 µM | > 10 µM | – | – | –
CC(C)(N)C(=O)N1CCN(c2cnc3ccc(-c4ccc5oc(N)nc5c4)cc3n2)CC1 [Compound 213] | < 0.1 µM | < 1 µM | < 1 µM | – | – | –
Nc1nc2cc(-c3ccc4ncc(N5CC(O)C5)nc4c3)ccc2o1 [Compound 216] | < 0.1 µM | < 1 µM | < 10 µM | – | – | –
Nc1nc2cc(-c3ccc4ncc(NCCCN5CCCC5)nc4c3)ccc2o1 [Compound 221] | < 0.1 µM | < 1 µM | < 0.1 µM | – | – | –
CN1CCN(C2CCN(c3cnc4ccc(-c5ccc6oc(N)nc6c5)cc4n3)CC2)CC1 [Compound 227] | < 0.1 µM | < 1 µM | < 0.1 µM | – | – | –
Nc1nc2cc(-c3ccc4nnc(-c5ccncc5)n4c3)ccc2o1 [Compound 229] | < 1 µM | < 1 µM | > 10 µM | – | – | –
CC(Oc1nc(-c2ccc3oc(N)nc3c2)cnc1N)C(F)(F)F (stereo not shown) [Compound 239] | < 10 µM | < 1 µM | < 10 µM | – | – | –

SMILES | IC50 [1] | IC50 [2] | IC50 [3] | IC50 ([1]; Table 4 (PI3K α inhibitors)) | IC50 ([2]; Table 4 (PI3K α inhibitors)) | IC50 ([3]; Table 4 (PI3K α inhibitors))
CC(=O)Nc1nc2cc(-c3ccc4oc(N)nc4c3)ccc2o1 [Compound 244] | > 10 µM | > 10 µM | > 10 µM | – | – | –
NC(=O)[C@H]1CCCN1C(=O)c1cnc2ccc(-c3ccc4oc(N)nc4c3)cn12 [Compound 260] | < 1 µM | > 10 µM | > 10 µM | – | – | –
Nc1nc2cc(-c3ccc4ncc(N5CCN(C6CC6)CC5)nc4c3)ccc2o1 [Compound 261] | < 0.1 µM | < 1 µM | > 10 µM | – | – | –
Nc1nc2cc(-c3ccc4ncc(C(=O)N5CC[C@H](O)C5)n4c3)ccc2o1 [Compound 264] | < 0.1 µM | < 10 µM | – | – | – | –
Nc1nc2cc(-c3ccc4ncc(C(=O)N5CC[C@@H](O)C5)n4c3)ccc2o1 [Compound 265] | < 0.1 µM | < 10 µM | – | – | – | –
CCN(CC)CCCn1cnc2ccc(-c3ccc4oc(N)nc4c3)cc2c1=O [Compound 281] | < 1 µM | > 10 µM | < 10 µM | – | – | –
NC(=O)[C@@H]1CCCN1C(=O)C1CN(c2cnc3ccc(-c4ccc5oc(N)nc5c4)cc3n2)C1 [Compound 283] | < 0.1 µM | > 10 µM | > 10 µM | – | – | –
NC(=O)[C@H]1CCCN1C(=O)C1CN(c2cnc3ccc(-c4ccc5oc(N)nc5c4)cc3n2)C1 [Compound 284] | < 0.1 µM | < 10 µM | < 10 µM | – | – | –
CN(C)[C@H]1CCN(c2cnc3ccc(-c4ccc5oc(N)nc5c4)cc3n2)C1 [Compound 382] | < 0.1 µM | < 1 µM | – | – | – | –
CN1CCN(c2cnc3ccc(-c4ccc5oc(N)nc5c4)cc3n2)C(=O)C1 [Compound 390] | < 10 µM | – | – | – | – | –
C[C@H]1CCCN1C(=O)c1cnc2ccc(-c3ccc4oc(N)nc4c3)cn12 [Compound 482] | < 0.1 µM | > 10 µM | – | – | – | –
Cn1ncc2c(-c3ccc4ncc(C(=O)N5CCOCC5)n4c3)cncc21 [Compound 537] | – | > 10 µM | > 10 µM | – | – | –
Nc1nc2cc(-c3ccc4ncc(C(=O)NCCOCCO)n4c3)ccc2o1 [Compound 550] | – | < 10 µM | < 10 µM | – | – | –
C[C@H]1CN(c2cnc3ccc(-c4ccc5oc(N)nc5c4)nc3n2)CCN1 [Compound 552] | – | – | – | < 1 µM | < 0.1 µM | –
Nc1nc2cc(-c3ccc4ncc(-c5cccnc5)nc4n3)ccc2o1 [Compound 554] | – | – | – | < 1 µM | – | > 10 µM
CN1CCN(c2cnc3ccc(-c4ccc5oc(N)nc5c4)nc3n2)CC1 [Compound 555] | – | – | – | < 1 µM | < 1 µM | –
Nc1nc2cc(-c3ccc4ncc(-c5cccnc5)cc4n3)ccc2o1 [Compound 567] | – | – | – | < 0.1 µM | – | –
C[C@@H]1CN(C2CN(c3cnc4ccc(-c5ccc6oc(N)nc6c5)nc4n3)C2)CCN1C [Compound 576] | – | – | – | < 0.1 µM | > 10 µM | –
NCC(=O)N1CCN(c2cnc3ccc(-c4ccc5oc(N)nc5c4)nc3n2)CC1 [Compound 584] | – | – | – | < 0.1 µM | – | –
C[C@@H]1CN(c2cnc3ccc(-c4ccc5oc(N)nc5c4)nc3c2)CCN1 [Compound 599] | – | – | – | < 0.1 µM | < 1 µM | –
C[C@@H]1COCCN1C1CN(c2cnc3ccc(-c4ccc5oc(N)nc5c4)nc3n2)C1 [Compound 600] | – | – | – | – | > 10 µM | > 10 µM
C[C@@H]1CN(C2CN(c3cnc4ccc(-c5ccc6oc(N)nc6c5)nc4c3)C2)CCN1C [Compound 608] | – | – | – | < 0.1 µM | – | < 1 µM
Nc1nc2cc(-c3ccc4ncc(N5CC(N6CCN(C7CC7)CC6)C5)nc4n3)ccc2o1 [Compound 620] | – | – | – | < 0.1 µM | – | –
Nc1nc2cc(-c3cnc4ccc(N5CCOCC5)nc4c3)ccc2o1 [Compound 624] | – | – | – | – | > 10 µM | > 10 µM
CC(C)(N)C(=O)N1CCN(c2ccc3ncc(-c4ccc5oc(N)nc5c4)cc3n2)CC1 [Compound 633] | – | – | – | – | > 10 µM | > 10 µM

From patent US20150087627A1, “COMBINATION OF KINASE INHIBITORS AND USES THEREOF” (Intellikine LLC, priority 2011, published 2015)
